Data on twelve compounds can be found in patent publication US20260284066A1, “TYK2 INHIBITORS AND COMPOSITIONS AND METHODS THEREOF” (LYNK PHARMACEUTICALS CO. LTD., priority 2023, published 2026).

Converted amounts (≈) assume the structure as drawn. Read-outs that look alike come from different tables or passages of the source.

The target in series [1] is T1, JAK1-JH2 domain (Homo sapiens, UniProt P23458).
T1 construct: JAK1-JH2 domain or TYK2-JH2 domain enzyme
In words: Binding activity test for JAK1 JH2 domain (Tb-antibody/tracer FRET). The settings on record: read-out: JAK1 JH2 Binding IC50. How it is done: Binding Activity test for JH2 domain of JAK and TYK2
75 nL DMSO for high control and low control.
For low control, add 5 μL/well assay buffer. […] After enzyme system prepared, add 5 μL of Tb-antibody solution into each wells of assay plate. […] After Tb-antibody added, also add 5 μL of tracer into the assay plate. […] Incubate for 60 mins at 25° C. firstly and then continue to incubate the plate at 4° C. overnight. Read by envision in FRET mode. The Luminescence value was recorded by a multi-label reader Envision (PerkinElmer). Inhibition Rate was calculated relative to vehicle (DMSO) treated control wells using following formula:
wherein • RLU_compound=the relative light unit of cells treated with test compounds • RLU_low control=the relative light unit of medium with DMSO only • RLU_high control=the relative light unit of cells treated with DMSO only

A short description of series [2]: Kinetic solubility. Format: physicochemical. The settings on record: 100 mM pH 7.4 phosphate buffer, 1% DMSO, room temperature, read-out: Kinetics Solubility_PBS7.4. How it is done: Aliquots of 8 μL of reference and test compound stock solutions (10 mM/5 mM) are added into 792 μL of 100 mM pH 7.4 phosphate buffer. The final DMSO concentration is 1%. Sample tubes are shaken for 2 hours at 1000 rpm at room temperature. Samples are centrifuged at 12000 rpm for 10 min to precipitate un-dissolved particles. And transfer the supernatants to a new tube or plate. Add 5 μL of samples (no diluted, 10 times diluted and 100 times diluted) and standard curve samples to 95 μL of ACN containing IS for LC-MS/MS analysis.

In series [3] the target is T2, TYK2-JH2 domain (Homo sapiens, UniProt P29597).
T2 construct: JAK1-JH2 domain or TYK2-JH2 domain enzyme
T2 sequence (P29597 589-875 limits assumed): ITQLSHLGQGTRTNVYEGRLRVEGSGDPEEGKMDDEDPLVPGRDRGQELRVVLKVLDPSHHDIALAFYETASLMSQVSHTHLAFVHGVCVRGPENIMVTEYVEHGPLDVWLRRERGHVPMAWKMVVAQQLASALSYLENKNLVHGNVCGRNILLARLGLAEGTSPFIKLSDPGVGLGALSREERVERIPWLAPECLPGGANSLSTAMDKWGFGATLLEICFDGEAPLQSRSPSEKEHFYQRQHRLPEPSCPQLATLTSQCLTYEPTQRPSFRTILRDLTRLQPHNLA
In words: Binding activity test for TYK2 JH2 domain (Tb-antibody/tracer FRET). The settings on record: for JAK1/TYK2 selectivity: ratio of JAK1 JH2 to TYK2 JH2 binding IC50; for IC50: read-out: TYK2 JH2 Binding IC50.

Series [4] in a line: Microsomal metabolic stability assay. Format: in vitro ADME, human. The settings on record: for half-life at 1 µM / microsomal CLint at 1 µM: human, liver microsomes, pH 7.4, human liver microsomes 0.5 mg/mL; for half-life at 1 µM: read-out: Human LM T½; for microsomal CLint at 1 µM: read-out: Human LM Clint. How it is done: Microsomal Metabolic Stability Assay
Microsomes were pre-incubated with test compound or control compounds for 5 min at 37° C. in 100 mM potassium phosphate buffer, pH 7.4, 1.0 mM EDTA. The reaction was initiated by addition of 15 μL of the NADPH regenerating system to 30 μL of each incubation mixture per time point. The final incubation condition was composed of 0.5 mg/mL microsomal protein, 1 μM test article/positive control, 2 mM NADPH. The 0-minute samples were prepared by addition of a 30 μL aliquot of each incubation mixture to 135 μL quench reagent to precipitate proteins. And then a 15 μL aliquot of the NADPH regenerating system was added. At 5, 15, 30 and 45 minutes, the reaction will be stopped by the addition of cold acetonitrile solution containing internal standard. The samples taken at all time points were centrifuged at 5000×g for 15 minutes. 50 μL of supernatant are taken into 96-well assay plates pre-added with 50 μL ultrapure water, and then analyzed by LC/MS/MS.
Concentrations of test articles, control compounds in the samples were determined by using LC/MS/MS method. Plotting of the chromatograms and peak area integrations are carried out by Analyst (AB Sciex).
In the determination of the in vitro elimination constant (ke) of the control compounds, the analyte/internal standard peak area ratios will be converted to percentage remaining (% Remaining) with the following equation:
The CLint of microsomes was calculated using the formula: CLint (mic)=0.693/T1/2/mg microsome protein per mL. The slope was measured by the natural logarithm of the percentage of the residual compound and time, T1/2 was calculated according to the following formula.

Series [5] concerns pSTAT1. Nature of the series: Phosphorylation inhibition of STAT in human whole blood (IFN-alpha stimulated, flow cytometry). Format: cell-based. The settings on record: T-cell, CD3+ T cells, read-out: pSTAT1 inhibition in hWB (IC50). Here is the method:
Phosphorylation Inhibition of STAT in Human Whole Blood Testing: The inhibitory potential of test articles in human whole blood assay was evaluated by the method of flow cytometry. IFN-alpha will activate JAK1 and TYK2 kinase in T cells by binding to IFN receptors, and then lead to phosphorylation of STAT1 and STAT2. The phosphorylated STAT1 enter nuclear and promote transcription and expression of IFN-gamma. To evaluate the efficacy of TYK2i in T cells, freshly collected human whole blood will be stimulated with certain unit of human IFN-alpha (Universal Type I IFN (1MU), R&D, 11200-2) for 20 mins in incubator. After stimulation, fix cells with PhosflowTM Fix Buffer I (BD, 557870), and then collect fixed cells by centrifugation (500 g, 8 min). Wash cells once with pre-cooled PBS, and then permeabilize cells with cold Perm Buffer III buffer (BD, 558050) for 45 mins on ice. Collect cells by centrifugation (600 g, 8 min) and washed twice with cold PBS. Stain cells with anti-human CD3(FITC Mouse Anti-Human CD3, BD, 555332) and anti-pSTAT1_Y701 (Alexa Fluor 647 Mouse Anti-Stat1 ([…]), BD, 612597) antibodies. Detect pSTAT1 by flow cytometry (CytoFlex S) and analyze data with FlowJo and GraphPad Prism 8 software. IC50 values of test articles were determined using 4-parameter logistic equation.

The mark [6] stands for this setting: human liver microsomes 0.5 mg/mL, 1 μM.

T1 sequence (P23458 583-855 limits assumed): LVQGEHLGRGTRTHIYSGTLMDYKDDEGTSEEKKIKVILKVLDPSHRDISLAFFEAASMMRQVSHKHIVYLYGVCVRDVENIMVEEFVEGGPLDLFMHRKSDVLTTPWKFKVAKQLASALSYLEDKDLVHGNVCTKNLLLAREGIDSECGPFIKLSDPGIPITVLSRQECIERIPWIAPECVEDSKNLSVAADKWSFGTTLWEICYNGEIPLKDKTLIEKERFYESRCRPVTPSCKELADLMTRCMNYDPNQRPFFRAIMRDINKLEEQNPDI

Consider `[2H]C([2H])([2H])NC(=O)c1cnc(NC(=O)C2CC2)cc1Nc1ncc2cnn(C(C)C(F)(F)F)c2c1OC` (single isomer, unassigned) [Example 3B, (S*)-6-(Cyclopropanecarboxamido)-4-((7-methoxy-1-(1,1,1-trifluoropropan-2-yl)-1H-pyrazolo[4,3-c]pyridin-6-yl)amino)-N-(methyl-d3)nicotinamide], for which the IC50 was found to be 114 nM in series [1] and 0.805 nM in series [3]. In addition, in series [2] (aqueous buffer), the solubility kinetic at 2 h came out at 12.8 µM (≈ 6.13 µg/mL). Also, the JAK1/TYK2 selectivity in series [3] is on record as 141.36. The “Human LM Clint” value in series [4] (setting [6]) is 5.33 µL/min/mg. In addition, the half-life at 1 µM in series [4] was determined as 4.33 h.

Turning to `[2H]C([2H])([2H])NC(=O)c1cnc(NC(=O)C2CC2)cc1Nc1ccc2cnn(CC(C)(F)F)c2c1OC` [Example 2, 6-(Cyclopropanecarboxamido)-4-((1-(2,2-difluoropropyl)-7-methoxy-1H-indazol-6-yl)amino)-N-(methyl-d3)nicotinamide], the IC50 in series [5] was found to be 327 nM. In addition, the IC50 in series [1] turned out to be 18.9 nM. For the same compound, in series [3], the JAK1/TYK2 selectivity turned out to be 78.97 and the IC50 came to 0.239 nM. In series [4], the microsomal CLint at 1 µM stood at 53.8 µL/min/mg and the half-life at 1 µM stood at 0.429 h.

On to `[2H]C([2H])([2H])NC(=O)c1cnc(NC(=O)[C@H]2C[C@H]2F)cc1Nc1ncc2cnn(CC(F)(F)F)c2c1OC` [Example 10, 6-((1R,2R)-2-fluorocyclopropane-1-carboxamido)-4-((7-methoxy-1-(2,2,2-trifluoroethyl)-1H-pyrazolo[4,3-c]pyridin-6-yl)amino)-N-(methyl-d3)nicotinamide], for which, in series [1], the IC50 was found to be 35.1 nM. In addition, in series [2] (aqueous buffer), the solubility kinetic at 2 h turned out to be 29 µM (≈ 14 µg/mL). Moreover, in series [3], the JAK1/TYK2 selectivity worked out at 86.04 and the IC50 is 0.408 nM. In addition, in series [4], the microsomal CLint at 1 µM was 4.49 µL/min/mg and the half-life at 1 µM is 5.15 h.

For the compound `[2H]C([2H])([2H])NC(=O)c1cnc(Nc2cc(CN3CCOCC3)n(C)n2)cc1Nc1ccc2cnn(CC#N)c2c1OC` [Example 12, 4-((1-(Cyanomethyl)-7-methoxy-1H-indazol-6-yl)amino)-N-(methyl-d3)-6-((1-methyl-5-(morpholinomethyl)-1H-pyrazol-3-yl)amino)nicotinamide], in series [1], the IC50 came to 1.62 nM. Further, in series [2] (aqueous buffer), the solubility kinetic at 2 h came out at 7.21 µM (≈ 3.85 µg/mL). In series [3], the JAK1/TYK2 selectivity worked out at 8.55 and the IC50 is 0.189 nM.

For `[2H]C([2H])([2H])NC(=O)c1cnc(NC(=O)C2CC2)cc1Nc1ncc2ncn(CC(C)(F)F)c2c1OC` [Example 14, 6-(Cyclopropanecarboxamido)-4-((1-(2,2-difluoropropyl)-7-methoxy-1H-imidazo[4,5-c]pyridin-6-yl)amino)-N-(methyl-d3)nicotinamide], in series [1], the IC50 came out at 38.8 nM. Besides, the solubility kinetic at 2 h in series [2] (aqueous buffer) stood at 16.9 µM (≈ 7.82 µg/mL). For the same compound, in series [3], the JAK1/TYK2 selectivity was found to be 217.86 and the IC50 was found to be 0.178 nM. In addition, in series [4], the microsomal CLint at 1 µM is 39.2 µL/min/mg and the half-life at 1 µM is 0.589 h.

On to `[2H]C([2H])([2H])NC(=O)c1cnc(NC(=O)C2CC2)cc1Nc1ccc2ccn(C([2H])([2H])[2H])c2c1OC` [Example 15, 6-(Cyclopropanecarboxamido)-4-((7-methoxy-1-(methyl-d3)-1H-indol-6-yl)amino)-N-(methyl-d3)nicotinamide], for which the 50% inhibitory concentration (IC50) in series [5] was 205 nM; in series [1], 1.47 nM; in series [3] it was 0.094 nM. Moreover, the JAK1/TYK2 selectivity in series [3] worked out at 15.64.

On to `[2H]C([2H])([2H])NC(=O)c1cnc(NC(=O)C2CC2)cc1Nc1cc(F)c2ccn(CC)c2c1OC` [Example 16, 6-(Cyclopropanecarboxamido)-4-((1-ethyl-4-fluoro-7-methoxy-1H-indol-6-yl)amino)-N-(methyl-d3)nicotinamide], for which the IC50 in series [5] was 220 nM; in series [1], 5.82 nM; in series [3], 0.083 nM. In addition, the JAK1/TYK2 selectivity in series [3] is on record as 70.10.

Consider `[2H]C([2H])([2H])NC(=O)c1cnc(NC(=O)C2CC2)cc1Nc1ncc2ccn(CC)c2c1OC` [Example 18, 6-(Cyclopropanecarboxamido)-4-((1-ethyl-7-methoxy-1H-pyrrolo[3,2-c]pyridin-6-yl)amino)-N-(methyl-d3)nicotinamide], for which the figures for the IC50 in series [1] and in series [3] were 4.09 nM and 0.049 nM, respectively. Also, the solubility kinetic at 2 h in series [2] (aqueous buffer) was determined as 41.5 µM (≈ 17.1 µg/mL). Moreover, in series [3], the JAK1/TYK2 selectivity came out at 83.55.

Turning to `[2H]C([2H])([2H])NC(=O)c1cnc(Nc2ccn(C)n2)cc1Nc1ncc2cnn(CC(C)(F)F)c2c1OC` [Example 22, 4-((1-(2,2-Difluoropropyl)-7-methoxy-1H-pyrazolo[4,3-c]pyridin-6-yl)amino)-N-(methyl-d3)-6-((1-methyl-1H-pyrazol-3-yl)amino)nicotinamide], in series [1], the IC50 worked out at 297 nM. Moreover, the solubility kinetic at 2 h in series [2] (aqueous buffer) was determined as 19.8 µM (≈ 9.39 µg/mL). Further, in series [3], the JAK1/TYK2 selectivity was 113.31 and the IC50 was found to be 2.62 nM. In addition, in series [4], the microsomal CLint at 1 µM is 9.25 µL/min/mg and the half-life at 1 µM was 2.5 h.

`[2H]C([2H])([2H])NC(=O)c1cnc(NC(=O)C2CC2)cc1Nc1ccc2ncn(CC(F)(F)F)c2c1OC` [Example 27, 6-(Cyclopropanecarboxamido)-4-((7-methoxy-1-(2,2,2-trifluoroethyl)-1H-benzo[d]imidazol-6-yl)amino)-N-(methyl-d3)nicotinamide]: the IC50 in series [1] is more than 298 nM. Also, the solubility kinetic at 2 h in series [2] (aqueous buffer) was 44.2 µM (≈ 20.6 µg/mL). In series [3], the JAK1/TYK2 selectivity was more than 107.8 and the IC50 came to 2.77 nM.

In the case of `[2H]C([2H])([2H])NC(=O)c1cnc(NC(=O)C2CC2)nc1Nc1ncc2cnn(CC(C)(F)F)c2c1OC` [Example 28, 2-(Cyclopropanecarboxamido)-4-((1-(2,2-difluoropropyl)-7-methoxy-1H-pyrazolo[4,3-c]pyridin-6-yl)amino)-N-(methyl-d3)pyrimidine-5-carboxamide], the IC50 in series [1] and in series [3] was more than 298 nM throughout. The solubility kinetic at 2 h in series [2] (aqueous buffer) stood at 20.6 µM (≈ 9.55 µg/mL).

On to “(R*)-6(Cyclopropanecarboxamido)-4((7-methoxy-1-(1,1,1-trifuoropropan-2-yl)-1H-pyrazolo[4,3-c]pyridin-6-yl)amino)-N-(methyl-d3)nicotinamide [Example 3A]”, for which, in series [1], the IC50 was more than 298 nM. In series [2], the solubility kinetic at 2 h is on record as 19.05 µM. Also, in series [3], the JAK1/TYK2 selectivity is recorded as more than 34.94 and the IC50 worked out at 8.54 nM. Moreover, in series [4] (setting [6]), the “Human LM Clint” value is 6.20 µL/min/mg and the “Human LM T½” value is 3.7278 h.
